Assay results: ChEMBL document CHEMBL4261560, “Structure-optimized dihydropyranoindole derivative GIBH-LRA002 potentially reactivated viral latency in primary CD4+ T lymphocytes of chronic HIV-1 patients” (Medchemcomm, 2017)
The source made the active and inactive calls. The calls are words filed in the database; no cut-off is given here.

How the values were obtained:
[1] = system: Human immunodeficiency virus; experiment: Reactivation of HIV latent provirus in primary CD4+ T lymphocytes isolated from infected human PBMC assessed as increase in usRNA level after 24 hrs by RT-PCR analysis; type: functional, organism-based
[2] = system: Human immunodeficiency virus; experiment: Reactivation of HIV latent provirus in primary CD4+ T lymphocytes isolated from infected human PBMC assessed as increase in msRNA level after 24 hrs by RT-PCR analysis; type: functional, organism-based
[3] = system: Human immunodeficiency virus 1; experiment: Reactivation of latent HIV1 LTR-GFP infected in human Jurkat-Lat A10.6 cells assessed as GFP-positive cells after 24 hrs by flow cytometry (reference value: 5.06%); type: functional
[4] = system: Simian immunodeficiency virus; experiment: Reactivation of Simian immunodeficiency virus mac239 latent provirus in primary CD4+ T lymphocytes isolated from infected rhesus monkey PBMC assessed as increase in msRNA level after 24 hrs by RT-PCR analysis; type: functional, organism-based
[5] = system: Simian immunodeficiency virus; experiment: Reactivation of Simian immunodeficiency virus mac239 latent provirus in primary CD4+ T lymphocytes isolated from infected rhesus monkey PBMC assessed as increase in usRNA level after 24 hrs by RT-PCR analysis; type: functional, organism-based
[6] = system: Human immunodeficiency virus 1; experiment: Reactivation of latent HIV1 LTR-GFP infected in human Jurkat-Lat A10.6 cells assessed as increase in GFP-positive cells after 24 hrs by flow cytometry relative to control; type: functional
[7] = Cytotoxicity against human J-Lat cells at 100 uM; type: cell-based
[8] = Cytotoxicity against human J-Lat cells; type: cell-based
[9] = system: PBMC; experiment: Cytotoxicity against PBMC (unknown origin) assessed as reduction in cell viability up to 500 uM by CCK8 assay; type: cell-based
[10] = system: T cell; experiment: Induction of monkey PBMC CD3+ T cells activation assessed as increase in CD69 expression up to 500 uM after 24 hrs by flow cytometry; type: cell-based, Macaca mulatta; conditions: rhesus monkey
[11] = system: Human immunodeficiency virus; experiment: Reactivation of HIV latent provirus in primary CD4+ T lymphocytes isolated from infected human PBMC assessed as increase in msRNA level at 10 to 100 uM after 24 hrs by RT-PCR analysis; type: functional, organism-based
[12] = system: T cell; experiment: Induction of monkey PBMC CD4+ T cells activation assessed as increase in CCR5 expression up to 500 uM after 24 hrs by flow cytometry; type: cell-based, Macaca mulatta; conditions: rhesus monkey
[13] = system: T cell; experiment: Induction of monkey PBMC CD4+ T cells activation assessed as increase in CD25 expression up to 500 uM after 24 hrs by flow cytometry; type: cell-based, Macaca mulatta; conditions: rhesus monkey
[14] = system: T cell; experiment: Induction of monkey PBMC CD3+ T cells activation assessed as increase in CCR5 expression up to 500 uM after 24 hrs by flow cytometry; type: cell-based, Macaca mulatta; conditions: rhesus monkey
[15] = system: Human immunodeficiency virus 1; experiment: Reactivation of latent HIV1 LTR-GFP infected in human Jurkat-Lat A10.6 cells assessed as GFP-positive cells at 100 uM after 24 hrs by flow cytometry (reference value: 5.06%); type: functional
[16] = system: T cell; experiment: Induction of monkey PBMC CD3+ T cells activation assessed as increase in CD25 expression up to 500 uM after 24 hrs by flow cytometry; type: cell-based, Macaca mulatta; conditions: rhesus monkey
[17] = system: T cell; experiment: Induction of monkey PBMC CD4+ T cells activation assessed as increase in CD69 expression up to 500 uM after 24 hrs by flow cytometry; type: cell-based, Macaca mulatta; conditions: rhesus monkey
[18] = system: Human immunodeficiency virus 1; experiment: Reactivation of latent HIV1 LTR-GFP infected in human Jurkat-Lat A10.6 cells assessed as GFP-positive cells at 10 uM after 24 hrs by flow cytometry (reference value: 5.06%); type: functional
[19] = system: Human immunodeficiency virus; experiment: Reactivation of HIV latent provirus in primary CD4+ T lymphocytes isolated from infected human PBMC assessed as increase in usRNA level at 10 to 100 uM after 24 hrs by RT-PCR analysis; type: functional, organism-based

CCCC(CCC)C(=O)O [VALPROIC ACID]
Activity [1]: inactive | Activity [2]: inactive | Activity [3]: 25.7% | Activity [4]: inactive | Activity [5]: inactive

CCOC(=O)[C@@]1(C(F)(F)F)C(C#N)=C(N)Oc2c1c1ccccc1n2C(=O)OC(C)(C)C
fold change (FC) [6]: 1.5 | Activity [7]: Toxic

CCOC(=O)C1(C(F)(F)F)C(C#N)=C(N)Oc2c1c1ccccc1n2Cc1ccccc1 (configuration not stated)
fold change (FC) [6]: 1.9 | Activity [7]: Toxic

CCOC(=O)C1(C(F)(F)F)C(C#N)=C(N)Oc2c1c1ccccc1n2C(=O)OC(C)(C)C (racemic)
fold change (FC) [6]: 2.6 | fold change (FC) [8]: 1.8

CCOC(=O)C1(C(F)(F)F)C(C#N)=C(N)Oc2[nH]c3ccccc3c21 (configuration not stated)
fold change (FC) [6]: 2 | Activity [7]: Toxic

CC(C)(C)OC(=O)n1c2c(c3ccccc31)C(C(F)(F)F)C(C#N)=C(N)O2 (configuration not stated)
fold change (FC) [6]: 0.25 | fold change (FC) [8]: 3

COC(=O)C1(C(F)(F)F)C(C#N)=C(N)Oc2c1c1ccccc1n2C(=O)OC(C)(C)C (configuration not stated)
fold change (FC) [6]: 2.1 | fold change (FC) [8]: 2.6

CCOC(=O)C1(C(F)(F)F)C(C#N)=C(N)Oc2c1c1ccccc1n2C (configuration not stated)
Activity [9]: Non-Toxic | Activity [10]: Non-Toxic | Activity [11]: Active | fold change (FC) [6]: 4.4 | Activity [12]: Non-Toxic | Activity [13]: Non-Toxic | Activity [14]: Non-Toxic | Activity [4]: Dose-dependent effect | Activity [15]: 23% | Activity [16]: Non-Toxic | Activity [17]: Non-Toxic | Activity [18]: 9.16% | Activity [19]: Active | Activity [5]: Dose-dependent effect | fold change (FC) [8]: 1.3
